{"source": "patent US20240350589A1", "about": "“IL-2/IL-15RBETAGAMMA AGONIST COMBINATION WITH ANTIBODY-DRUG CONJUGATES FOR TREATING CANCER” (Cytune Pharma, priority 2021, published 2024)", "key": {"AGS tumor cell line [1]": {"test_system": "AGS tumor cell line", "test": "In vitro killing of AGS tumor cells, AnnexinV/DAPI flow cytometry", "type": "cell-based, human", "details": "doxorubicin 1.2 μM or cisplatin 100 μM 48 h; Kadcyla 7 μg/ml 72 h"}, "AGS tumor cell line [2]": {"test_system": "AGS tumor cell line", "test": "Cell surface exposure of ICD markers CRT, HSP70, HSP90 on early apoptotic AGS cells (flow cytometry)", "type": "cell-based, human", "details": "doxorubicin 1.2 μM, cisplatin 100 μM 48 h vs Kadcyla 7 μg/ml 72 h", "experimental": "The cells are collected and washed twice with PBS. The cells are then incubated for 30 min with primary antibody diluted in cold blocking buffer (2% fetal bovine serum in PBS), followed by washing and incubation with an […] monoclonal secondary antibody in blocking solution. Each sample was then analyzed using a FACScan Aria (BD Bioscience). Cell surface expression of HSP70, HSP90 and CRT is analyzed on non-permeabilized annexin V-positive/DAPI-negative cells.\nThe expression of ICD markers Hsp70, Hsp90 and CRT as well as NK cells ligands was measured by flow cytometry on these early apoptotic (AnnexinV^+/DAPI^−) cell populations using anti-calreticulin antibody (Abcam, USA), anti-HSP70 (R&D Systems, USA), anti-HSP90 (Enzo Life Sciences, USA). APC AffiniPure F(ab′)2 Fragment Goat Anti-Mouse (Jackson ImmunoResearch) was used as a secondary antibody."}, "[3]": {"details": "in vivo; cited from earlier work"}, "[4]": {"test_system": "CD3-CD56+ cells (NK cells) of human PBMCs", "test": "In vitro activation of NK cells: RLI-15 treated PBMCs co-incubated with treated AGS tumor cells", "type": "cell-based", "experimental": "As controls non-treated tumor cells were incubated with non-treated PBMC (KadNT in the ADC group) and non-treated tumor cells were incubated with RLI-15 treated PBMC (KadNT in the RLI+ADC group)."}, "huHER2/EMT-6 tumors": {"test_system": "huHER2/EMT-6 tumors", "test": "Orthotopic huHER2/EMT-6 breast cancer model in vivo", "design": "species or system Balb/c AnN mice", "details": "RLI-15 1 mg/kg s.c. days 15-18, Kadcyla 15 mg/kg i.v. days 0 and 7", "experimental": "The study was initiated when the initial mean tumor volume among individual groups reached 140 mm^3. […] RLI-15 was administered in 4 sequential doses on study days 15-18 to amplify the numbers and activate immune cells. The antitumor efficacy was evaluated on the level of absolute tumor volume change. Safety has been monitored by body weight loss in individual animals. HER2 expression in individual tumors was analyzed using HercepTest™ (Dako) at the endpoint to map for potential heterogeneity of the model (staining was performed according to the instructions given by the manufacturer)."}}, "note": "Entries after “also recorded” stand apart in the source; their conditions may differ.", "data": [{"compound": "N.N.[Cl][Pt][Cl]", "note": "[cisplatin]", "values": [{"measurement": "induction of early apoptosis compared with Kadcyla", "setting": "AGS tumor cell line [1]", "result": "equally"}, {"measurement": "mean fluorescent intensity (MFI) of ICD markers compared with Kadcyla", "setting": "AGS tumor cell line [2]", "result": "stronger induction"}]}, {"compound": "Todelvy", "values": [{"measurement": "half-life", "setting": "[3]", "result": 16, "unit": "h"}]}, {"compound": "RLI-15: receptor-linker-interleukin fusion protein of the human IL-15Rα sushi+ fragment with the human IL-15 (SEQ ID NO: 9)", "values": [{"measurement": "proliferation of CD3-CD56+ NK cells", "setting": "[4]; PBMCs +/- 2.5 ng/ml RLI-15 72 h, AGS cells +/- Kadcyla 72 h, 10:1, 4 h", "result": "increase of total number of CD3−CD56^+ cells; also recorded: strong proliferation; also recorded: increase of total number of CD3^−CD56^+ cells"}, {"measurement": "% of IFNγ+ NK cells", "setting": "[4]; PBMCs +/- 2.5 ng/ml RLI-15 72 h, AGS cells treated with Kadcyla 5-10 μg/ml 72 h, 10:1, 4 h", "result": "only moderate"}, {"measurement": "% of CD107a+ cells, KadNT group", "setting": "[4]; RLI-15 treated PBMC with non-treated tumor cells", "result": "< 40", "unit": "%"}, {"measurement": "tumor volume at the end of the study", "setting": "huHER2/EMT-6 tumors", "result": "intermediate tumor volume increase"}, {"measurement": "complete tumor eradication / complete and durable responses", "setting": "huHER2/EMT-6 tumors; groups of 8 mice", "result": "2 out of 8"}]}, {"compound": "COc1cccc2c1C(=O)c1c(O)c3c(c(O)c1C2=O)C[C@@](O)(C(=O)CO)C[C@@H]3O[C@H]1C[C@H](N)[C@H](O)[C@H](C)O1", "note": "[doxorubicin]", "values": [{"measurement": "induction of early apoptosis compared with Kadcyla", "setting": "AGS tumor cell line [1]", "result": "even better suitable to induce early apoptosis"}, {"measurement": "mean fluorescent intensity (MFI) of ICD markers compared with Kadcyla", "setting": "AGS tumor cell line [2]", "result": "about equal"}]}]}
